The values below are quoted from earlier work in article PMC3136501 (PLoS ONE, 2011).

The test system of this data set is OCTs. The following applies: high-affinity interaction with OCTs; cited from earlier work.
For `Nc1nc(NC2CC2)c2ncn([C@H]3C=C[C@@H](CO)C3)c2n1` [Abacavir], the “IC50 (interaction with OCTs)” value was “low nanomolar range”.
For `Cc1cn([C@H]2C[C@H](N=[N+]=[N-])[C@@H](CO)O2)c(=O)[nH]c1=O` [Azidothymidine], the “IC50 (interaction with OCTs)” value is “low nanomolar range”.
As to `Nc1nc(=O)n([C@@H]2CS[C@H](CO)O2)cc1F` [Emtricitabine], the “IC50 (interaction with OCTs)” value is listed as “low nanomolar range”.
`Nc1ccn([C@@H]2CS[C@H](CO)O2)c(=O)n1` [Lamivudine]: the “IC50 (interaction with OCTs)” value is listed as “low nanomolar range”.
Turning to `C[C@H](Cn1cnc2c(N)ncnc21)OCP(=O)(O)O` [Tenofovir], the “IC50 (interaction with OCTs)” value is “low nanomolar range”.
